Calls of active or inactive are those of the source. No cut-off for these calls is given here.
Legend:
Hep 3B2 [1] = assay: Antiproliferative activity against human Hep3B cells assessed as growth inhibition incubated for 72 hrs by celltiter-glo assay; assay type: functional
OVCAR-3 = assay: Antiproliferative activity against human OVCAR-3 cells assessed as viable cell signal at maximum growth inhibition incubated for 72 hrs by celltiter-glo assay relative to control; assay type: functional
DLD-1 = assay: Antiproliferative activity against human DLD-1 cells assessed as growth inhibition incubated for 72 hrs by celltiter-glo assay; assay type: functional
BT-549 [2] = assay: Antiproliferative activity against human BT-549 cells assessed as viable cell signal at maximum growth inhibition incubated for 72 hrs by celltiter-glo assay relative to control; assay type: functional
SK-MEL3 = assay: Antiproliferative activity against human SK-MEL3 cells assessed as viable cell signal at maximum growth inhibition incubated for 72 hrs by celltiter-glo assay relative to control; assay type: functional
SCLC = assay: Antiproliferative activity against human SCLC cells assessed as growth inhibition incubated for 72 hrs by celltiter-glo assay; assay type: functional
MDA-MB-453 = assay: Antiproliferative activity against human MDA-MB-453 cells assessed as of viable cell signal at minimum maximum cell growth incubated for 72 hrs by celltiter-glo assay relative to control; assay type: functional
A549 [3] = assay: Induction of mitotic arrest in human A549 cells assessed as micronucleation at 20 nmol/L incubated for 16 hrs by DAPI staining based confocal microscopic analysis; assay type: functional, cell-based
COLO 205 [4] = assay: Antitumor activity against human COLO 205 cells xenografted in Nude mouse assessed as increase in pHH3 level at 50 mg/kg, ip measured at 24 hrs by immunohistochemistry analysis; assay type: functional, organism-based
Hep 3B2 [5] = assay: Antiproliferative activity against human Hep3B cells assessed as of viable cell signal at minimum maximum cell growth incubated for 72 hrs by celltiter-glo assay relative to control; assay type: functional
NCI-H82 = assay: Antiproliferative activity against human NCI-H82 cells assessed as viable cell signal at maximum growth inhibition incubated for 72 hrs by celltiter-glo assay relative to control; assay type: functional
SK-BR-3 = assay: Antiproliferative activity against human SK-BR-3 cells assessed as viable cell signal at maximum growth inhibition incubated for 72 hrs by celltiter-glo assay relative to control; assay type: functional
COLO 205 [6] = assay: Antitumor activity against human COLO 205 cells xenografted in Nude mouse assessed as increase in pHH3 level at 50 to 100 mg/kg, ip measured at 24 to 48 hrs by immunohistochemistry analysis; assay type: functional, organism-based; details: dose 50-100 mg/kg, time 24-48 hrs
RPMI-8226 = assay: Antiproliferative activity against human RPMI-8226 cells assessed as viable cell signal at maximum growth inhibition incubated for 72 hrs by celltiter-glo assay relative to control; assay type: functional
NCI-H358 = assay: Antiproliferative activity against human NCI-H358 cells assessed as viable cell signal at maximum growth inhibition incubated for 72 hrs by celltiter-glo assay relative to control; assay type: functional
COLO 205 [7] = assay: Antitumor activity against human COLO 205 cells xenografted in Nude mouse assessed as tumor growth delay time at 100 mg/kg, ip administered every 2 to 4 days; assay type: functional; details: time 2-4 day
HCT-15 = assay: Antiproliferative activity against human HCT-15 cells assessed as growth inhibition incubated for 72 hrs by celltiter-glo assay; assay type: functional
OVCAR-8 = assay: Antiproliferative activity against human OVCAR-8 cells assessed as viable cell signal at maximum growth inhibition incubated for 72 hrs by celltiter-glo assay relative to control; assay type: functional
T47D = assay: Antiproliferative activity against human T47D cells assessed as viable cell signal at maximum growth inhibition incubated for 72 hrs by celltiter-glo assay relative to control; assay type: functional
BT-549 [8] = assay: Antiproliferative activity against human BT-549 cells assessed as growth inhibition incubated for 72 hrs by celltiter-glo assay; assay type: functional
Jurkat = assay: Antiproliferative activity against human Jurkat cells assessed as growth inhibition incubated for 72 hrs by celltiter-glo assay; assay type: functional
MX1 = assay: Antiproliferative activity against human MX1 cells assessed as of viable cell signal at minimum maximum cell growth incubated for 72 hrs by celltiter-glo assay relative to control; assay type: functional
SK-OV-3 = assay: Antiproliferative activity against human SK-OV-3 cells assessed as viable cell signal at maximum growth inhibition incubated for 72 hrs by celltiter-glo assay relative to control; assay type: functional
NCI-H1299 = assay: Antiproliferative activity against human NCI-H1299 cells assessed as growth inhibition incubated for 72 hrs by celltiter-glo assay; assay type: functional
A2780 = assay: Antiproliferative activity against human A2780 cells assessed as growth inhibition incubated for 72 hrs by celltiter-glo assay; assay type: functional
A549 [9] = assay: Antiproliferative activity against human A549 cells assessed as viable cell signal at maximum growth inhibition incubated for 72 hrs by celltiter-glo assay relative to control; assay type: functional
U-87 MG = assay: Antiproliferative activity against human U-87 MG cells assessed as of viable cell signal at minimum maximum cell growth incubated for 72 hrs by celltiter-glo assay relative to control; assay type: functional, U-87MG ATCC
[10] = system: Platelet-derived growth factor receptor alpha (Homo sapiens), P16234 [V561D]; assay: Inhibition of N-terminal his6-tagged recombinant human PDGFRA V561D mutant at 10 uM relative to control
MCF7 = assay: Antiproliferative activity against human MCF7 cells assessed as viable cell signal at maximum growth inhibition incubated for 72 hrs by celltiter-glo assay relative to control; assay type: functional

Platelet-derived growth factor receptor alpha (Homo sapiens), P16234 [V561D], sequence (P16234 whole entry V561D): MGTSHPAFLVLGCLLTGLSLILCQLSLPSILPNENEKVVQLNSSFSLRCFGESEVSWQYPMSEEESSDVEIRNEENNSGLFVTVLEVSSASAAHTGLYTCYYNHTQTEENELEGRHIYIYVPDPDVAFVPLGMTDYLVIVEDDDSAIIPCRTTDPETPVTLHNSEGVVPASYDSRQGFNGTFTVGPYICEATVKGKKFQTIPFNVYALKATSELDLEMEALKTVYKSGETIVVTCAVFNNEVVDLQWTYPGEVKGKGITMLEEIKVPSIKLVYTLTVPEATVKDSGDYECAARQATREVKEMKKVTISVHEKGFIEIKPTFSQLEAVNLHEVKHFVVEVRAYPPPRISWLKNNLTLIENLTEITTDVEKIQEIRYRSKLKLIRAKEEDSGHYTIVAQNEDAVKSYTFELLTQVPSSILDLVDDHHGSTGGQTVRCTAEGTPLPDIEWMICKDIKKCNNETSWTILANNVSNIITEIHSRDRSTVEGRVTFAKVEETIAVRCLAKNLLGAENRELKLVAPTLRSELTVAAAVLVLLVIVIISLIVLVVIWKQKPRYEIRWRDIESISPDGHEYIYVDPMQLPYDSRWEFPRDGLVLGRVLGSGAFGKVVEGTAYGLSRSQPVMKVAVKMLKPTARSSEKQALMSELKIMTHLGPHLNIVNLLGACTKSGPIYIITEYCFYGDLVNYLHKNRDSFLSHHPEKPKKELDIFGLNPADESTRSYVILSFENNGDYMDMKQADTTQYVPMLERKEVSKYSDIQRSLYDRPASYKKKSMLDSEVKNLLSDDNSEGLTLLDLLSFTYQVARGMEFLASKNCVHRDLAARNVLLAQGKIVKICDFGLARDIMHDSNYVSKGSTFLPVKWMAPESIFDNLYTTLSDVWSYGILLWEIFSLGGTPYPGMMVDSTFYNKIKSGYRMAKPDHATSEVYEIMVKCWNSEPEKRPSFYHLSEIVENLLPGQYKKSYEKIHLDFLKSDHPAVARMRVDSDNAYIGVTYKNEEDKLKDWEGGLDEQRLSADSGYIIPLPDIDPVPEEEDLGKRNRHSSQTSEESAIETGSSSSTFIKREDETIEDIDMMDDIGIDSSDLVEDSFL

`C[C@@H](Oc1cc(-n2cnc3ccc(CN4CCN(C)CC4)cc32)sc1C(N)=O)c1ccccc1C(F)(F)F` [GSK-461364] gave a GI50 (Hep 3B2 [1]) of 0.0358 µM, an Emax (OVCAR-3) of 496% and a GI50 (DLD-1) of 0.0489 µM. For the same compound, the Emax (BT-549 [2]) was 265%, the Emax (SK-MEL3) was 708% and the GI50 (SCLC) was 0.0174 µM. For the same compound, the Emin (MDA-MB-453) was 179.6%, the Activity (A549 [3]) was “Active” and the Activity (COLO 205 [4]) was “Active”. It also gave an Emin (Hep 3B2 [5]) of 132.1%, an Emax (NCI-H82) of 398% and an Emax (SK-BR-3) of 300%. The Activity (COLO 205 [6]) was “Active”, the Emax (RPMI-8226) was 515% and the Emax (NCI-H358) was 308%. For the same compound, the Time (COLO 205 [7]) was 18 days, the GI50 (HCT-15) was 0.0909 µM and the Emax (OVCAR-8) was 567%. For the same compound, the Emax (T47D) was 320%, the GI50 (BT-549 [8]) was 0.0231 µM and the GI50 (Jurkat) was 0.0186 µM. For the same compound, the Emin (MX1) was 161.5%, the Emax (SK-OV-3) was 345% and the GI50 (NCI-H1299) was 0.0614 µM. It also gave a GI50 (A2780) of 0.0281 µM, an Emax (A549 [9]) of 632% and an Emin (U-87 MG) of 0.1%. It also gave an inhibition [10] of 96% and an Emax (MCF7) of 429%.

Reference: ChEMBL document CHEMBL5705887, “Distinct concentration-dependent effects of the polo-like kinase 1-specific inhibitor GSK461364A, including differential effect on apoptosis” (Cancer Res, 2009)
